Source: patent US20250313555A1, “2-SUBSTITUTED THIAZOLE AND BENZOTHIAZOLE COMPOSITIONS AND METHODS AS DUX4 INHIBITORS” (ALTAY THERAPEUTICS, INC., priority 2022, published 2025)

Legend:
Format in all cases: cell-based
MBD3L2 RNA = test: RNA isolation and qPCR to determine MBD3L2 RNA levels in FSHD cells; conditions: 48 hrs
Protocol: Protocol for RNA Isolation and qPCR to Determine MBD3L2 RNA Levels The protocol describes the process of isolating RNA from cultured cells, converting the RNA to complementary DNA (cDNA), and measuring target gene expression using a quantitative polymerase chain reaction (qPCR). The seed FSHD cells were dispensed into a six-well dish. One day after seeding, the DUX4 inhibitor (11 μM or 3.6 μM/well) was added to the cells. After another 48 hrs, the old media was removed from the cells. The cells were washed with 2 mL of warm phosphate buffered saline (PBS). The PBS was aspirated, and the cells were lysed in each well with 350 μL of RLT buffer+3.5 μL of beta-mercaptoethanol (BME). The lysates were added to fresh, RNAse-free, labeled Eppendorf tubes. The cells were then physically disrupted for […] at level 4 of the bead disrupter to ensure the release of the RNA. The RNA was collected according to standard procedures (i.e., Qiagen kit instructions) as discussed below. The RNA concentrations were standardized to […]. In a PCR tube, RNA (2 μg) in a new Eppendorf tube was diluted with RNase-free water to a 9.5 μL final volume of […] RNA. DNase was used to remove any DNA contamination. A DNase Master Mix was prepared from 1.5 μL/reaction DNase solution (1 unit/μL, Promega), 3 μL/reaction 5× RT buffer (i.e., 250 mM Tris-HCl (pH 8.3), 375 mM KCl, 15 mM MgCl2, and 500 μl 0.1 M DTT; Promega MMLV), and 1 μL/reaction RNase inhibitor solution (RNasin, 40 units/μL, Promega). The DNase Master Mix was added to the standardized RNA samples (5.5 μL/sample). The samples were mixed by agitation and briefly spun down by centrifuge. The samples were heated to 37° C. for 60 min, 80° C. for 5 min, and then cooled to 4° C. The samples were stored on ice until the addition of the next reagents. An RT Reaction Master Mix was prepared from 5 μL/reaction 5× RT buffer, 2 μL/reaction dNTP solution (2.5 mM in each nucleotide), 1 μL/reaction RNase inhibitor solution (RNasin, 40 units/μL, Promega), 1.6 μL/reaction M-MLV reverse transcriptase (200 units/μL, Promega), and 13.4 μL/reaction deionized, RNase-free water. The RT Reaction Master Mix was cooled on ice until use. A 50 μM solution of Random Primer 6 random hexanucleotides (2 μL) was added to each sample. The samples were mixed by agitation and briefly spun down by centrifuge. The samples were heated to 70° C. for 5 min and then cooled to 4° C. The RT Reaction Master Mix (23 μL) was added to each sample. The samples were mixed by agitation and briefly spun down by centrifuge. To convert the RNA to cDNA, the samples were heated to 42° C. for 60 min, 95° C. for 5 min, and then cooled to 4° C. The cDNA product mixture was diluted 5:1 with deionized water (40 μL+160 μL). The samples were run in triplicate, with a methyl-CpG-binding protein 3-like 2 (MBD3L2) target primer and a eukaryotic translation elongation factor 1-alpha (EEF1A) control primer. An qPCR Master Mix was prepared for each primer and stored on ice (4° C.) until use. The qPCR Master Mix included 10 μL/reaction SYBR Green Mix (2×) (ThermoFisher), 1 μL/reaction of the primer mix (i.e., the MBD3L2 PCR Primer mix or the EEF1A Primer mix), and 4 μL/reaction deionized, RNase-free water. To set up the qPCR plate, 15 μL of the appropriate qPCR Master Mix was added to the appropriate wells for each target/primer. After all the targets/primers have been added to the wells, 5 μL of the sample was added to the corresponding wells so that each well is 20 μL total. The plate was covered with a clear sheet. An qPCR run was set up (QuantStudio 5) with the following cycle: […]

[1] = Cell cytotoxicity 50 assay (CC50), MB200 cells, cell titer glo; conditions: human
Protocol: Cell Cytotoxicity 50 Assay Protocol (CC50) MB200 cells were grown until 80% confluent in F10 media supplemented with rhFGF basic (10 ng/ml), 15% fetal bovine serum, 1% penicillin streptomycin, 1% amphotericin B, and 1 μM dexamethasone. Adherent MB200 cells growing on 10 cm plate were then trypsinized with 1 ml of trypsin. Once the cells detached from the plate, F10 media (10 mL) was added, and the cells were strained through a 70 μm cell strainer. The cells were counted using a mixture of 10 μL cell suspension with 10 μL of trypan blue. Once the total number of cells were counted, a dilution of 200 k/mL was prepared, and the cells were seeded with 10 k cells/well in a 96-well plate in triplicate, making sure to avoid seeding cells in the edges of the plate to avoid edge effects. Using a multichannel pipet, the 200 k/mL cell dilution (50 μL/well) was added into wells B2-B11, C2-C11, and D2-D11 in triplicate. Into a deep well block (DWB), the media for the appropriate cell line (450 μL/well) was added into wells 1-10. Into DWB well 2, 10 mM of drug solution (13.5 μL) was added, followed by an additional volume of the medium (225 μL). The well was pipetted up/down four times. A portion (225 μL) was transferred to well 3, and this process was repeated up to well 10. Using a multichannel pipet, a smaller portion (50 μL/well) was removed from all wells in the DWB and then dispensed on top of the cells in each corresponding row. After adding the drug, the plate was incubated at 37° C. for 72 h. Using a multi-channel pipet, pre-warmed cell titer glo reagent (Promega) (100 μL) was added into every well. After 5 minutes, the total luminescence was measured with a luminometer. CC50 was determined with GraphPad prism template.

[2] = Cell cytotoxicity 50 assay (CC50), HEK cells; conditions: human
Protocol: Cell Cytotoxicity 50 Assay Protocol (CC50) Into a deep well block (DWB), the media for the appropriate cell line (450 μL/well) was added into wells 1-10. Into DWB well 2, 10 mM of drug solution (13.5 μL) was added, followed by an additional volume of the medium (225 μL). The well was pipetted up/down four times. A portion (225 μL) was transferred to well 3, and this process was repeated up to well 10. Using a multichannel pipet, a smaller portion (50 μL/well) was removed from all wells in the DWB and then dispensed on top of the cells in each corresponding row. After adding the drug, the plate was incubated at 37° C. for 72 h. Using a multi-channel pipet, pre-warmed cell titer glo reagent (Promega) (100 μL) was added into every well. After 5 minutes, the total luminescence was measured with a luminometer. CC50 was determined with GraphPad prism template.

| Structure (SMILES) | qPCR MBD3L2 Inhib at 11 µM (MBD3L2 RNA) | CC50 at 72 h [1] [µM] | CC50 at 72 h [2] [µM] |
| --- | --- | --- | --- |
| O=C(CCN1C(=O)CCC1=O)Nc1ccc(-c2nc3ccccc3s2)cc1 [Compound 1] | YES | 1 to 10 | > 10 |
| Cc1ccc2nc(-c3ccc(NC(=O)CCN4C(=O)CCC4=O)cc3)sc2c1 [Compound 2] | – | 1 to 10 | > 10 |
| CCOCCCC(=O)Nc1ccc(-c2nc3ccccc3s2)cc1 [Compound 3] | – | 1 to 10 | 1 to 10 |
| CC(=O)CCCC(=O)Nc1ccc(-c2nc3ccc(C)cc3s2)cc1 [Compound 4] | – | > 10 | > 10 |
| CC(=O)NCCCC(=O)Nc1ccc(-c2nc3ccccc3s2)cc1 [Compound 5] | YES | > 10 | > 10 |
| O=C(CCN1C(=O)CCC1=O)Nc1ccc(-c2nc3ccccc3s2)cn1 [Compound 6] | – | > 10 | > 10 |
| CC(=O)NCC(C)CC(=O)Nc1ccc(-c2nc3ccccc3s2)cc1 (stereo not drawn) [Compound 9] | YES | > 10 | > 10 |
| CCC(=O)NCCCC(=O)Nc1ccc(-c2nc3ccccc3s2)cc1 [Compound 10] | YES | > 10 | > 10 |
| O=C(CCc1ccncc1)Nc1ccc(-c2nc3ccccc3s2)cc1 [Compound 12] | – | > 10 | > 10 |
| O=C(CCc1cccnc1)Nc1ccc(-c2nc3ccccc3s2)cc1 [Compound 13] | YES | > 10 | > 10 |
| O=C(CCc1cnc[nH]1)Nc1ccc(-c2nc3ccccc3s2)cc1 [Compound 14] | YES | > 10 | > 10 |
| CC(=O)NCCCC(=O)Nc1ccc(-c2nc3ccc(C)cc3s2)cc1 [Compound 15] | YES | > 10 | > 10 |
| Cc1ccc2nc(-c3ccc(NC(=O)CC4CCCC4)cc3)sc2c1 [Compound 16] | YES | > 10 | > 10 |
| CCOCCCC(=O)Nc1ccc(-c2nc3ccc(C)cc3s2)cc1 [Compound 17] | – | 1 to 10 | 1 to 10 |
| O=C(CCN1CCCC1=O)Nc1ccc(-c2nc3ccccc3s2)cc1 [Compound 18] | YES | > 10 | > 10 |
| CC(=O)OCCCC(=O)Nc1ccc(-c2nc3ccccc3s2)cc1 [Compound 19] | – | > 10 | > 10 |
| CC(=O)CCCC(=O)Nc1ccc(-c2nc3ccccc3s2)cc1 [Compound 20] | – | > 10 | > 10 |
| O=C(CCN1C(=O)CCC1=O)Nc1ccc(-c2nc3ccccc3s2)o1 [Compound 24] | – | > 10 | > 10 |
| CC(=O)NCCC(=O)Nc1ccc(-c2nc3ccc(C)cc3s2)cc1 [Compound 35] | – | > 10 | > 10 |
| CC(=O)NCCC(=O)Nc1coc(-c2nc3ccccc3s2)c1 [Compound 42] | – | > 10 | > 10 |

| Structure (SMILES) | qPCR MBD3L2 Inhib at 11 µM (MBD3L2 RNA) | CC50 at 72 h [1] [µM] | CC50 at 72 h [2] [µM] |
| --- | --- | --- | --- |
| CC(=O)NCCC(=O)Nc1ccc(-c2nc3ccc(F)cc3s2)cc1 [Compound 45] | – | > 10 | > 10 |
| CC(=O)NCCC(=O)Nc1ccc(-c2nc3cc(Cl)ccc3s2)cc1 [Compound 47] | – | > 10 | > 10 |
| O=C(CCn1ccnn1)Nc1ccc(-c2nc3ccccc3s2)cc1 [Compound 48] | – | > 10 | > 10 |
| O=C(CCN1CCCC1=O)Nc1ccc(C(=O)c2nc3ccccc3s2)cc1 [Compound 50] | – | > 10 | > 10 |
| O=C(CCc1ncccn1)Nc1ccc(-c2nc3ccccc3s2)cc1 [Compound 51] | – | > 10 | > 10 |
| O=C(CCc1cocn1)Nc1ccc(-c2nc3ccccc3s2)cc1 [Compound 57] | – | > 10 | > 10 |
| CC(=O)NCCC(=O)Nc1ccc(-c2nc3cnccc3s2)cc1 [Compound 58] | – | > 10 | > 10 |
| O=C(CCCc1cnco1)Nc1ccc(-c2nc3ccccc3s2)cc1 [Compound 63] | – | > 10 | 1 to 10 |
| O=C(CCCc1cnco1)Nc1coc(-c2nc3ccccc3s2)c1 [Compound 68] | – | > 10 | > 10 |
| CC(=O)NCCCC(=O)Nc1ccc(-c2ncc(Cl)s2)cc1 [Compound 78] | – | > 10 | > 10 |
| O=C(CCCN1C(=O)CCC1=O)Nc1nc2ccccc2s1 [Compound 82] | – | > 10 | > 10 |
| O=C1CCC(=O)N1[C@H]1C[C@H](C(=O)Nc2ccc(-c3nc4ccccc4s3)cc2)C1 [Compound 96] | – | > 10 | > 10 |
| O=C(CCCc1cocn1)Nc1ccc(-c2nc3cc(F)ccc3s2)cc1 [Compound 99] | – | > 10 | > 10 |
| CC(=O)NC1CC1C(=O)Nc1ccc(-c2nc3ccccc3s2)cc1 (stereo not drawn) [Compound 100] | – | > 10 | > 10 |
| N#CCCCC(=O)Nc1ccc(-c2nc3ccccc3s2)cc1 [Compound 124] | – | > 10 | > 10 |
| CC(=O)NCCCC(=O)Nc1ccc(-c2nc3ccccc3s2)cc1C [Compound 125] | – | > 10 | > 10 |
| CC(=O)NCCCC(=O)Nc1ccc(-c2ncc(-c3ccccc3)s2)cc1 [Compound 132] | – | > 10 | > 10 |
| O=C(CCCN1C(=O)CCC1=O)Nc1ccc(-c2nc3ccccc3s2)o1 [Compound 168] | – | > 10 | > 10 |
| O=C(CCC1CCC(=O)N1)Nc1ccc(-c2nc3ccccc3s2)cc1 (stereo not drawn) [Compound 176] | – | 1 to 10 | > 10 |
